Eleven compounds from patent publication US11739078B2, “Methods of inhibiting kinases” (INSILICO MEDICINE IP LIMITED, priority 2019, dated 2023) can be followed below.

Each structure is given as a SMILES string. Like-named read-outs stand apart in the source and are kept apart here. Bounds are passed on as bounds.

One test deals with TNIK (Homo sapiens (Human), UniProt Q9UKE5). The experiment in a line: TNIK enzymatic assay (radiometric kinase inhibition). It is filed as biochemical. The procedure: The compounds were studied for function as TNIK inhibitors to generate the data of Table 1. […] (specific activity and concentration as required). The reaction is initiated by the addition of the Mg/ATP mix. After incubation for 40 minutes at room temperature, the reaction is stopped by the addition of phosphoric acid to a concentration of 0.5%.

The target in a further test is MAP4K4 (h) (Homo sapiens (Human), UniProt O95819). Briefly: MAP4K4 in vitro kinase assay (radiometric). It is filed as biochemical. Particulars: read-out: MAP4K4_IC50. On the procedure: (specific activity and concentration as required). The reaction is initiated by the addition of the Mg/ATP mix. After incubation for 40 minutes at room temperature, the reaction is stopped by the addition of phosphoric acid to a concentration of 0.5%.

[1] abbreviates: TNIK enzymatic assay, Table 1, read-out: IC50.

Sequence of MAP4K4 (h) (O95819 whole entry): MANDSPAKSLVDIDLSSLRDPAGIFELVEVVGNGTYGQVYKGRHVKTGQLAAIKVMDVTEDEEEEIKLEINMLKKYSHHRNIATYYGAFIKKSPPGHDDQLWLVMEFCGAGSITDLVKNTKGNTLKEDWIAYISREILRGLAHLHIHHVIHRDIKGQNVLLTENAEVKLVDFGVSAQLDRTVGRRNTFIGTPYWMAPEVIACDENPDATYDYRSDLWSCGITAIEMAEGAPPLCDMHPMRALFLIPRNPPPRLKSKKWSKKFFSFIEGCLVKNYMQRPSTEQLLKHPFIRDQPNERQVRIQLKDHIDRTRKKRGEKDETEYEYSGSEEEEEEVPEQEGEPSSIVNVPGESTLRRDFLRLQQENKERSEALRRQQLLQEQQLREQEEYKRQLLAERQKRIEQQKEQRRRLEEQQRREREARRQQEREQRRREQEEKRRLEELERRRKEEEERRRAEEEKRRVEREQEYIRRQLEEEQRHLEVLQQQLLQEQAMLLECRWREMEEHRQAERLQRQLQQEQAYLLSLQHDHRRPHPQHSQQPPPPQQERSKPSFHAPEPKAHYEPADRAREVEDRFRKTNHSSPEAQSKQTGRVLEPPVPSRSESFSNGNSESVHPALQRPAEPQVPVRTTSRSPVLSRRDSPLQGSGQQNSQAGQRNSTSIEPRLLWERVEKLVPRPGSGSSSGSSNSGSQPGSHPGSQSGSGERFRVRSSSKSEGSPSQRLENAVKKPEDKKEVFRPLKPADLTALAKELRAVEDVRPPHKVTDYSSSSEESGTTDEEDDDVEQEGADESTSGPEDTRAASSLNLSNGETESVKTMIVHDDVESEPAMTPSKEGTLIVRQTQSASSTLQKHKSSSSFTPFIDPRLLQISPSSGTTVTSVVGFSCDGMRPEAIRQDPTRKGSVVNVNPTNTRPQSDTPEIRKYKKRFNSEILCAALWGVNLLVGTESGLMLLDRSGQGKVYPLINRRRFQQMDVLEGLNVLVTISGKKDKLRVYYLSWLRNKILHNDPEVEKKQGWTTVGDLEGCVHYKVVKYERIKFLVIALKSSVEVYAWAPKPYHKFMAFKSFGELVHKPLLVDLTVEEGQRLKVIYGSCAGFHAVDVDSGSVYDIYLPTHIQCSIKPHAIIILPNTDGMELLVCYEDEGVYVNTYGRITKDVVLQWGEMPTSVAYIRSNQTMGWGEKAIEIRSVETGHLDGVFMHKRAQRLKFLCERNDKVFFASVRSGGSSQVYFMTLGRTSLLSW
Sequence of TNIK (Q9UKE5 whole entry): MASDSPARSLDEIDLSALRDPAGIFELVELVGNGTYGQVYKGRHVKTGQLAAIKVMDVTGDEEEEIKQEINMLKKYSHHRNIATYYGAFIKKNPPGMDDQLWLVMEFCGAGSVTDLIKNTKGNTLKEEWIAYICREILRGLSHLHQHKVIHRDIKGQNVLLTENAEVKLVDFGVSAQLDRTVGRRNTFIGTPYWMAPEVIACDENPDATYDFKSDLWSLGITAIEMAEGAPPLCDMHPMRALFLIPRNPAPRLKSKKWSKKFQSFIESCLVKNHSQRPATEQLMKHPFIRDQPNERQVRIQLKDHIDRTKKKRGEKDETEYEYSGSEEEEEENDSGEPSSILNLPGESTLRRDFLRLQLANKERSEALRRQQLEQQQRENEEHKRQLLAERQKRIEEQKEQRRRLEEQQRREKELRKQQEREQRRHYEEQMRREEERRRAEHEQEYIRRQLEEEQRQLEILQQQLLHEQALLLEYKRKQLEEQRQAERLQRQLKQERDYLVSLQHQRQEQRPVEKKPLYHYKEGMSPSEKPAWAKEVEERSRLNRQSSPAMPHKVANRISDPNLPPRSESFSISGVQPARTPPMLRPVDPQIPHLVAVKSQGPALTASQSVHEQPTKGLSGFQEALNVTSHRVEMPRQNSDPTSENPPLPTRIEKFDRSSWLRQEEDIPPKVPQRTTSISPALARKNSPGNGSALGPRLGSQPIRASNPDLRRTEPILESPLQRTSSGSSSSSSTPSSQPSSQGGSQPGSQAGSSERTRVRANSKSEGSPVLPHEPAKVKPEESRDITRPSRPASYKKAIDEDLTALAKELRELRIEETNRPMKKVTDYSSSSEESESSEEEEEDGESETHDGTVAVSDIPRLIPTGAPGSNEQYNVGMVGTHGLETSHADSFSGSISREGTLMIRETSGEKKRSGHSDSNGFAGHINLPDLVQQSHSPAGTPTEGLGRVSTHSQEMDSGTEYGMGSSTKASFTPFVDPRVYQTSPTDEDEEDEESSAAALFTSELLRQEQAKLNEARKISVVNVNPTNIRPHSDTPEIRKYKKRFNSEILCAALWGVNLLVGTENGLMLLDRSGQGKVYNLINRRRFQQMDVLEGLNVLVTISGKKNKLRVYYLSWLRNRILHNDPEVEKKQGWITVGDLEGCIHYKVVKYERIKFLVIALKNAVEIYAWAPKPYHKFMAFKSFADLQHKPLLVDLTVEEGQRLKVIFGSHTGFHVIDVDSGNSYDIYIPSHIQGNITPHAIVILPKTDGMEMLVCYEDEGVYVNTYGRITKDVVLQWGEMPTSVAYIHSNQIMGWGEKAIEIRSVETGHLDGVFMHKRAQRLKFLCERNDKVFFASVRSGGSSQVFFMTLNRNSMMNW

For `CCc1cccc(C)c1NC(=O)c1ccc(-c2c(-c3ccc(F)cc3)ncn2C2CCCC2)o1` [Compound 37, 5-(1-cyclopentyl-4-(4-fluorophenyl)-1H-imidazol-5-yl)-N-(2-ethyl-6-methylphenyl)furan-2-carboxamide], the figures for the IC50 at TNIK (setting [1]), on TNIK (read-out: TNIK_IC50) and on MAP4K4 (h) were 900 nM, 900 nM and more than 1000 nM, respectively.

In the case of `O=C(Nc1c(O)cncc1F)c1ccc(-c2c(-c3ccc(F)cc3)ncn2C2COCC2(F)F)o1` (centres unmarked) [Compound A-41, 5-(1-(4,4-difluorotetrahydrofuran-3-yl)-4-(4-fluorophenyl)-1H-imidazol-5-yl)-N-(3-fluoro-5-hydroxypyridin-4-yl)furan-2-carboxamide], the IC50 at TNIK (read-out: TNIK_IC50) is 317 nM; at MAP4K4 (h) it was more than 1000 nM.

In the case of `O=C(Nc1ccccc1Br)c1ccc(-c2c(-c3ccc(F)cc3)ncn2C2CCCC2)o1` [Compound 13, N-(2-bromophenyl)-5-(1-cyclopentyl-4-(4-fluorophenyl)-1H-imidazol-5-yl)furan-2-carboxamide], the IC50 was less than 10 nM on TNIK (setting [1]), 12 nM at TNIK (read-out: TNIK_IC50) and 15.2 nM on MAP4K4 (h).

Take `Cc1cc(F)ccc1NC(=O)c1ccc(-c2c(-c3ccc(F)cc3)ncn2C2CCCC2)o1` [Compound 43, 5-(1-cyclopentyl-4-(4-fluorophenyl)-1H-imidazol-5-yl)-N-(4-fluoro-2-methylphenyl)furan-2-carboxamide]: the IC50 was 172 nM at TNIK (setting [1]), 172 nM at TNIK (read-out: TNIK_IC50) and 139 nM on MAP4K4 (h).

Consider `CCOc1ccc(NC(=O)c2ccc(-c3c(-c4ccc(F)cc4)ncn3C3CCCCC3)o2)cc1` [Compound 64, 5-(1-cyclohexyl-4-(4-fluorophenyl)-1H-imidazol-5-yl)-N-(4-ethoxyphenyl)furan-2-carboxamide], for which the IC50 on TNIK (setting [1]) was 62 nM; on TNIK (read-out: TNIK_IC50), 62 nM; at MAP4K4 (h), 175 nM.

Consider `COc1cccc(NC(=O)c2ccc(-c3c(-c4ccc(F)cc4)ncn3C3CCCC3)o2)c1` [Compound 12, 5-(1-cyclopentyl-4-(4-fluorophenyl)-1H-imidazol-5-yl)-N-(3-methoxyphenyl)furan-2-carboxamide], for which the IC50 is 101 nM at TNIK (setting [1]), 101 nM at TNIK (read-out: TNIK_IC50) and 141 nM at MAP4K4 (h).

Turning to `O=C(Nc1ccc(Br)cc1)c1ccc(-c2c(-c3ccc(F)cc3)ncn2C2CCCC2)o1` [Compound 49, N-(4-bromophenyl)-5-(1-cyclopentyl-4-(4-fluorophenyl)-1H-imidazol-5-yl)furan-2-carboxamide], the IC50 was 152 nM on TNIK (setting [1]), 152 nM at TNIK (read-out: TNIK_IC50) and 436 nM on MAP4K4 (h).

Turning to `COc1ccc(NC(=O)c2ccc(-c3c(-c4ccc(F)cc4)ncn3C3CCCC3)o2)cc1Cl` [Compound 45, N-(3-chloro-4-methoxyphenyl)-5-(1-cyclopentyl-4-(4-fluorophenyl)-1H-imidazol-5-yl)furan-2-carboxamide], the IC50 at TNIK (setting [1]), on TNIK (read-out: TNIK_IC50) and on MAP4K4 (h) was 165 nM in each case.

`O=C(Nc1cccc(F)c1)c1ccc(-c2c(-c3ccc(F)cc3)ncn2C2CCCCC2)o1` [Compound 63, 5-(1-cyclohexyl-4-(4-fluorophenyl)-1H-imidazol-5-yl)-N-(3-fluorophenyl)furan-2-carboxamide]: the IC50 on TNIK (setting [1]) came to 108 nM; on TNIK (read-out: TNIK_IC50), 108 nM; at MAP4K4 (h), 127 nM.

With `COc1ccc(OC)c(NC(=O)c2ccc(-c3c(-c4ccc(F)cc4)ncn3C3CCCC3)o2)c1` [Compound 2, 5-(1-cyclopentyl-4-(4-fluorophenyl)-1H-imidazol-5-yl)-N-(2,5-dimethoxyphenyl)furan-2-carboxamide], the IC50 on TNIK (setting [1]) was less than 10 nM; on TNIK (read-out: TNIK_IC50) it was 3.07 nM; on MAP4K4 (h), 10.2 nM.

Turning to `Cc1cccc(C)c1NC(=O)c1ccc(-c2c(-c3ccc(F)cc3)ncn2C2CCCCC2)o1` [Compound 60, 5-(1-cyclohexyl-4-(4-fluorophenyl)-1H-imidazol-5-yl)-N-(2,6-dimethylphenyl)furan-2-carboxamide], the IC50 at TNIK (setting [1]) is 874 nM; on TNIK (read-out: TNIK_IC50) it was 874 nM; on MAP4K4 (h) it was more than 1000 nM.
